Source: patent US20140350014A1, “COMPOUNDS FOR INHIBITING THE INTERACTION OF BCL2 WITH BINDING PARTNERS” (NOVARTIS AG, priority 2011, published 2014)

Experiments:
[1] = target: BCL-2 binding to BAD peptide (Homo sapiens, UniProt P10415); assay: BCL2 SPR solution inhibition assay, BAD peptide surface (Biacore A100); details: read-out: BCL2_SPR IC50 BAD
Source text: (§1) 33The present method includes utility of a Surface plasmon resonance (SPR)-based biosensor (Bia34core™′ GE Healthcare, Uppsala, Sweden) to characterize BCL-2 inhibitors. 35
(§2) 36Biacore™ utilizes the phenomenon of surface plasmon resonance (SPR) to detect and measure 37binding interactions. In a typical Biacore experiment, one of the interacting molecules (ligand) is i38mmobilized on a flexible dextran matrix while the interacting partner (analyte) is allowed to fl39ow across that surface. A binding interaction results in an increase in mass on the sensor surface 40and a corresponding direct change in the refractive index of the medium in the vicinity of the 41sensor surface. Changes in refractive index or signal are recorded in resonance units (R.U.) Signal 42changes due to association and dissociation of complexes are monitored in a non-invasive manne43r, continuously and in real-time, the results of which are reported in the form of a sensorgram.44
(§3) The SPR assay is con45figured to examine solution inhibition of BCL-2 binding to peptide derivatized sensor surfa46ces to generate IC50 values as a measure of inhibitor potency.
(§4) Biacore™ A100 (GE Healthcare, Uppsala, Sweden) was used to conduct all experiments reported herein. Sensor surface preparation and all interaction analyses experiments were performed at 25° C. Reagents were purchased from GE Healthcare. Running buffer containing 10 mM Hepes, pH7.4, 150 mM sodium chloride, 1.25 mM Dithiothreitol, 3% Dimethyl sulfoxide and 0.05% polysorbate 20 were utilized throughout all analyses.
(§5) Biotinylated BAK, BAD and NOXA peptides were diluted to 10 nM in running buffer and captured onto a sensor surface pre-derivatized with streptavidin (sensor chip SA) to peptide surface densities in the range 50-100 R.U. Peptide captured surfaces were blocked with 500 μM PEO2-Biotin.
(§6) Interaction analyses were performed by first equilibrating each sample within a 6 point three fold compound dilution series in the range 16 μM to […] with 56 nM BCL-2 for one hour during instrument start-up procedures. Protein compound mixtures were then injected over each peptide surface in parallel for 60 seconds at a flow-rate of 30 μL/min. 56 nM BCL-2 control samples were also prepared and run at regular intervals during the assay. Surface regeneration was performed at the end of each analysis cycle by two 30 second injections of 10 mM Glycine, pH 2.5, 1M Sodium Chloride, 0.05% polysorbate 20. Samples and control compound samples were run in duplicate and controls are also run at regular intervals during the assay to monitor surface and assay performance.
(§7) Data analyses are carried out using Biacore™ A100 evaluation software v1.1 to validate assay quality. Binding level report points were used relative to BCL-2 control samples to calculate % inhibition values for each compound protein mixture. […] The range of data shown in table 1 represents the high and low IC50 values obtained from multiple experiments.

[2] = target: BCL-2 binding to BAK peptide (Homo sapiens, UniProt P10415); assay: BCL2 SPR solution inhibition assay, BAK peptide surface (Biacore A100); details: read-out: BCL2_SPR IC50 BAK
Sequence of BCL-2 binding to BAK peptide (P10415 whole entry): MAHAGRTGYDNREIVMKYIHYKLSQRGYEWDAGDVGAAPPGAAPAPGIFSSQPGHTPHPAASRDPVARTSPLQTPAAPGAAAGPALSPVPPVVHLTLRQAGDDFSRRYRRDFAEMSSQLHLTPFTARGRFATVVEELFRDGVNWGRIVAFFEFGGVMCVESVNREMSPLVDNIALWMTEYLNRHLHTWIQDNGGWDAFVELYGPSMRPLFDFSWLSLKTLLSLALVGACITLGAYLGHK
Source text: as §1, §2, §3, §4, §5, §6, §7

Sequence of BCL-2 binding to BAD peptide (P10415 whole entry): as above

Row | Compound | IC50 [1] | IC50 [2]
1 | CCCCN(CCCC)C(=O)c1cc(C)n(-c2ccc(N3CCN(c4ccccc4)CC3)cc2C(=O)N2Cc3ccccc3C[C@H]2CO)n1 [Example 15] | 668 to 770 nM | 552 to 713 nM
2 | CCCCN(CCCC)C(=O)c1cc(C)n(-c2ccc(-c3ccc(F)c(C)c3)cc2C(=O)N2Cc3ccccc3C[C@H]2CO)n1 [Example 28] | 919 to 1070 nM | 802 to 913 nM
3 | CCCCN(CCCC)C(=O)c1cc(C)n(-c2ccc(-c3cccc4cnccc34)cc2C(=O)N2Cc3ccccc3C[C@H]2CO)n1 [Example 53] | 811 to 996 nM | 607 to 779 nM
4 | CCCCN(CCCC)C(=O)c1nn(-c2ccc(-c3ccc(N(C)C)nc3)cc2C(=O)N2Cc3ccccc3C[C@H]2CO)c(C)c1Cl [Example 8] | 745 to 750 nM | 767 to 786 nM
5 | CCCCN(CCCC)C(=O)c1cc(C)n(-c2ccc(-c3ccc(OC)c(C)c3)cc2C(=O)N2Cc3ccccc3C[C@H]2CO)n1 [Example 29] | 767 to 820 nM | 563 to 621 nM
6 | CCCCN(CCCC)C(=O)c1nn(-c2ccc(-c3ccc(OC)nc3)cc2C(=O)N2Cc3ccccc3C[C@H]2CO)c(C)c1Cl [Example 10] | 843 to 958 nM | 790 to 906 nM
7 | CCCCN(CCCC)C(=O)c1cc(C)n(-c2ccc(-c3ccc4ccccc4c3)cc2C(=O)N2Cc3ccccc3C[C@H]2CO)n1 [Example 67] | 823 to 857 nM | 785 to 804 nM
8 | CCCCN(CCCC)C(=O)c1cc(C)n(-c2ccc(N3CCN(c4ccccc4)CC3=O)cc2C(=O)N2Cc3ccccc3C[C@H]2CO)n1 [Example 2, (S)—N,N-dibutyl-1-(2-(3-(hydroxymethyl)-1,2,3,4-tetrahydroisoquinoline-2-carbonyl)-4-(2-oxo-4-phenylpiperazin-1-yl)phenyl)-5-methyl-1H-pyrazole-3-carboxamide] | 4360 to 4620 nM | 3150 to 3300 nM
9 | CCCCN(CCCC)C(=O)c1cc(C)n(-c2ccc(-c3ccc(N(C)C)cc3)cc2C(=O)N2Cc3ccccc3C[C@H]2CO)n1 [Example 68] | 1160 to 1210 nM | 1050 to 1100 nM
10 | CCCCN(CCCC)C(=O)c1cc(C)n(-c2ccc(-c3cccc(C(=O)O)c3)cc2C(=O)N2Cc3ccccc3C[C@H]2CO)n1 [Example 4, (S)-4′-(3-(dibutylcarbamoyl)-5-methyl-1H-pyrazol-1-yl)-3′-(3-(hydroxymethyl)-1,2,3,4-tetrahydroisoquinoline-2-carbonyl)-[1,1′-biphenyl]-3-carboxylic acid] | 110 to 119 nM | 86.6 to 91 nM
11 | CCCCN(CCCC)C(=O)c1cc(C)n(-c2ccc(-c3ccc(C)c(C)c3)cc2C(=O)N2Cc3ccccc3C[C@H]2CO)n1 [Example 50] | 881 to 933 nM | 793 to 883 nM
12 | CCCCN(CCCC)C(=O)c1cc(C)n(-c2ccc(-c3cccc(OC)c3)cc2C(=O)N2Cc3ccccc3C[C@H]2CO)n1 [Example 49] | 896 to 978 nM | 626 to 696 nM
13 | CCCCN(CCCC)C(=O)c1cc(C)n(-c2ccc(-c3ccccc3F)cc2C(=O)N2Cc3ccccc3C[C@H]2CO)n1 [Example 24] | 3010 to 3410 nM | 3360 to 4630 nM
14 | CCCCN(CCCC)C(=O)c1cc(C)n(-c2ccc(-c3ccc(C(=O)NCC)c(F)c3)cc2C(=O)N2Cc3ccccc3C[C@H]2CO)n1 [Example 37] | 312 to 319 nM | 239 to 240 nM
15 | CCCCN(CCCC)C(=O)c1cc(C)n(-c2ccc(-c3ccc(C(=O)NC)c(Cl)c3)cc2C(=O)N2Cc3ccccc3C[C@H]2CO)n1 [Example 58] | 151 to 152 nM | 111 to 112 nM
16 | CCCCN(CCCC)C(=O)c1cc(C)n(-c2ccc(-c3ccc(Cl)c(C(=O)N(C)C)c3)cc2C(=O)N2Cc3ccccc3C[C@H]2CO)n1 [Example 39] | 727 to 738 nM | 617 to 657 nM
17 | CCCCN(CCCC)C(=O)c1cc(C)n(-c2ccc(-c3cccc(Cl)c3Cl)cc2C(=O)N2Cc3ccccc3C[C@H]2CO)n1 [Example 45] | 7160 to 7600 nM | 7410 to 7540 nM

Row | Compound | IC50 [1] | IC50 [2]
18 | CCCCN(CCCC)C(=O)c1cc(C)n(-c2ccc(-c3ccc(C(=O)N4CCCC4)c(F)c3)cc2C(=O)N2Cc3ccccc3C[C@H]2CO)n1 [Example 25] | 223 to 224 nM | 159 to 171 nM
19 | CCCCN(CCCC)C(=O)c1cc(C)n(-c2ccc(N3CCN(Cc4ccc(Cl)cc4)C(=O)C3)cc2C(=O)N2Cc3ccccc3C[C@H]2CO)n1 [Example 3, (S)—N,N-dibutyl-1-(4-(4-(4-chlorobenzyl)-3-oxopiperazin-1-yl)-2-(3-(hydroxymethyl)-1,2,3,4-tetrahydroisoquinoline-2-carbonyl)phenyl)-5-methyl-1H-pyrazole-3-carboxamide] | 474 to 506 nM | 512 to 515 nM
20 | CCCCN(CCCC)C(=O)c1cc(C)n(-c2ccc(N3CCN(Cc4ccccc4Cl)C(=O)C3)cc2C(=O)N2Cc3ccccc3C[C@H]2CO)n1 [Example 21] | 180 to 202 nM | 179 to 190 nM
21 | CCCCN(CCCC)C(=O)c1cc(C)n(-c2ccc(N3CCN(Cc4ccccc4)CC3)cc2C(=O)N2Cc3ccccc3C[C@H]2CO)n1 [Example 22] | 202 to 231 nM | 220 to 272 nM
22 | CCCCN(CCCC)C(=O)c1cc(C)n(-c2ccc(-c3cccc(Cl)c3)cc2C(=O)N2Cc3ccccc3C[C@H]2CO)n1 [Example 27] | 744 to 783 nM | 520 to 599 nM
23 | CCCCN(CCCC)C(=O)c1cc(C)n(-c2ccc(-c3ccccc3C#N)cc2C(=O)N2Cc3ccccc3C[C@H]2CO)n1 [Example 40] | 6490 to 7830 nM | 4940 to 5880 nM
24 | CCCCN(CCCC)C(=O)c1nn(-c2ccc(-c3ccncc3OC)cc2C(=O)N2Cc3ccccc3C[C@H]2CO)c(C)c1Cl [Example 9] | 773 to 905 nM | 703 to 902 nM
25 | CCCCN(CCCC)C(=O)c1cc(C)n(-c2ccc(-c3cc(C)cc(F)c3)cc2C(=O)N2Cc3ccccc3C[C@H]2CO)n1 [Example 66] | 998 to 1060 nM | 936 to 976 nM
26 | CCCCN(CCCC)C(=O)c1cc(C)n(-c2ccc(-c3cc(F)cc(C(=O)NC)c3)cc2C(=O)N2Cc3ccccc3C[C@H]2CO)n1 [Example 61] | 458 to 474 nM | 331 to 344 nM
27 | CCCCN(CCCC)C(=O)c1cc(C)n(-c2ccc(N3CCN(Cc4ccccc4)C(=O)C3)cc2C(=O)N2Cc3ccccc3C[C@H]2CO)n1 [Example 20] | 136 to 143 nM | 119 to 137 nM
28 | CCCCN(CCCC)C(=O)c1nn(-c2ccc(-c3cccnc3)cc2C(=O)N2Cc3ccccc3C[C@H]2CO)c(C)c1Cl [Example 5] | 218 to 236 nM | 253 to 262 nM
29 | CCCCN(CCCC)C(=O)c1cc(C)n(-c2ccc(-c3cccc(OC(F)(F)F)c3)cc2C(=O)N2Cc3ccccc3C[C@H]2CO)n1 [Example 36] | 837 to 848 nM | 741 to 759 nM
30 | CCCCN(CCCC)C(=O)c1cc(C)n(-c2ccc(N3CCN(Cc4cccc(Cl)c4)C(=O)C3)cc2C(=O)N2Cc3ccccc3C[C@H]2CO)n1 [Example 23] | 162 nM | 148 to 155 nM
31 | CCCCN(CCCC)C(=O)c1cc(C)n(-c2ccc(N3CCN(C)CC3)cc2C(=O)N2Cc3ccccc3C[C@H]2CO)n1 [Example 17] | 2640 to 3050 nM | 1570 to 1640 nM
32 | CCCCN(CCCC)C(=O)c1cc(C)n(-c2ccc(-c3cc(Cl)ccc3OC)cc2C(=O)N2Cc3ccccc3C[C@H]2CO)n1 [Example 54] | 938 to 952 nM | 803 to 845 nM
33 | CCCCN(CCCC)C(=O)c1cc(C)n(-c2ccc(-c3cccc(S(C)(=O)=O)c3)cc2C(=O)N2Cc3ccccc3C[C@H]2CO)n1 [Example 38] | 885 to 891 nM | 632 to 656 nM
34 | CCCCN(CCCC)C(=O)c1cc(C)n(-c2ccc(-c3ccc(F)cc3Cl)cc2C(=O)N2Cc3ccccc3C[C@H]2CO)n1 [Example 64] | 4460 to 4810 nM | 3380 to 4000 nM
